# Test results taken from ChEMBL document CHEMBL2057103, “Synthesis and biological activity of novel bifunctional isoxazolidinyl polycyclic aromatic hydrocarbons” (Bioorg Med Chem, 2012).
# Activity calls are given as the source filed them. The calls are words filed in the database; no cut-off is given here.
# Assays:
# HeLa = assay: Cytotoxicity against human HeLa cells after 20 hrs by MTS assay; type: functional, cell-based
# A549 = assay: Cytotoxicity against human A549 cells after 20 hrs by SRB assay; type: functional, cell-based; conditions: A549, 20 h
# MOLT-3 = assay: Cytotoxicity against human MOLT3 cells after 20 hrs by MTS assay; type: functional, cell-based; conditions: MOLT-3, 20 h
# THP-1 = assay: Cytotoxicity against human THP1 cells after 20 hrs by MTS assay; type: functional, cell-based; conditions: THP-1, 20 h
# U-937 = assay: Cytotoxicity against human U937 cells after 20 hrs by MTS assay; type: functional, cell-based; conditions: U-937, 20 h
# Vero = assay: Cytotoxicity against african green monkey Vero cells after 20 hrs by MTS assay; type: cell-based; conditions: Chlorocebus sabaeus
# Nucleic Acid [1] = assay: Binding affinity to Escherichia coli phiX174 RF1 DNA poly GC fragment assessed as DNA unwinding in presence of topoisomerase 1 after 30 mins by electrophoresis; type: nucleic-acid assay
# Nucleic Acid [2] = assay: Binding affinity to Escherichia coli phiX174 RF1 DNA poly-d(G-C)2 fragment assessed as DNA unwinding in presence of topoisomerase 1 after 30 mins by electrophoresis; type: nucleic-acid assay
Activity (Nucleic Acid [1]),Activity (Nucleic Acid [2]),Compound,IC50 (HeLa) [µM],IC50 (A549) [µM],IC50 (MOLT-3) [µM],IC50 (THP-1) [µM],IC50 (U-937) [µM],IC50 (Vero) [µM]
–,–,OC[C@@H]1C[C@H](c2ccc3ccc4cccc5ccc2c3c45)N(Cc2ccccc2O)O1 (racemic) [listing 1 of 2 here],4,2,5,7,32,37
Active,–,OC[C@@H]1C[C@H](c2ccc3ccc4cccc5ccc2c3c45)N(Cc2ccccc2O)O1 (racemic) [listing 2 of 2 here],–,–,–,–,–,–
–,Active,OC[C@@H]1C[C@H](c2ccc3ccc4cccc5ccc2c3c45)N(Cc2ccccc2O)O1,–,–,–,–,–,–
–,–,OC[C@H]1C[C@H](c2ccc3ccc4cccc5ccc2c3c45)N(Cc2ccccc2O)O1 (racemic),11,9,13,15,88,103
